Experimental data as given in patent US9468646B2, “Increased dosage of efavirenz for the treatment of cancer” (Alienor Farma, priority 2013, dated 2016).
Several values for one entry are separate records, joined by “and”; a condition that tells them apart may be missing. Identical values can stand only once. Like-named read-outs stand apart in the source and are kept apart here.

Experiments:
[1] = FAVE study: Efavirenz plasma concentration (UPLC-MS/MS); assay type: in vivo, human; conditions: 600 mg/day
Excerpt: Sixty-one patients were included in the study and fifty-three patients had no violation of the eligibility criteria and received Efavirenz at least once (general population). The assessment of Efavirenz plasma concentrations was an optional exploratory objective to which the patients had to expressly consent. Plasma Efavirenz concentrations at the three month time point were available for 41 patients that were used for the exploratory analysis. Blood samples for the evaluation of Efavirenz plasma concentrations were taken at three months after the start of Efavirenz treatment. For Efavirenz plasma concentration determination, 10 ml of blood were collected using sodium or lithium heparinate tubes. After each blood collection, the tubes of blood were centrifuged for 5 minutes at 5000 g. Plasma was collected in polypropylene tubes. The plasma tubes of each subject were packed and stored in appropriately labelled plastic frost-resistant bags and stored at −20° C. until analysis. Samples were sent to a pharmacokinetic analysis laboratory for Efavirenz concentration analysis that was performed using a validated mass-spectrometry coupled to liquid chromatography (UPLC-MS/MS) method. […] Calibration curves were obtained by analysis of standard solutions prepared in plasma in the range 100-10000 ng/mL and limit of quantification (LOQ) was 2.5 ng/mL.

[2] = Pharmacokinetic study in rats (Balani et al 1999); assay type: in vivo; conditions: rat, intravenous injection of 5 mg/kg, converted from μM
[3] = ESCALE study: Efavirenz plasma concentration depending on daily dose (UPLC-MS/MS); assay type: in vivo, human; conditions: for mean plasma concentration of Efavirenz: three patients
Excerpt: The […] clinical study is a single arm, single center (Bergonie Institute), and dose escalation phase I study. Objectives of this study are to assess the safety, tolerability, and recommended dose of Efavirenz administered orally, by continuous once-daily administration in patients with solid tumors (no pancreatic cancer) and Non-Hodgkin Lymphoma (NHL) who have failed chemotherapy treatment. The scheme of the study is a dose escalation evaluated by continual reassessment method likelihood approach (O'Quickley, 1996). […] The maximal subject number assessable is 30 patients. Blood samples for the evaluation of Efavirenz plasma concentrations were taken at 14 days, 28 days after the start of Efavirenz treatment. For Efavirenz plasma concentration determination, 10 ml of blood were collected using sodium or lithium heparinate tubes. After each blood collection, the tubes of blood were centrifuged for 5 minutes at 5000 g. Plasma was collected in polypropylene tubes. The plasma tubes of each subject were packed and stored in appropriately labelled plastic frost-resistant bags and stored at -20° C. until analysis. Samples were sent to a pharmacokinetic analysis laboratory for Efavirenz concentration analysis that was performed using a validated mass-spectrometry coupled to liquid chromatography (UPLC-MS/MS) method. […] The sample was vortex-mixed for 30 sec, and then 5 mL of diethyl ether was added. After 15 min under agitation, the organic and aqueous phases were separated by centrifugation at 3000 rpm for 10 min. […] The residue was re-dissolved in 150 μL of methanol. The UPLC-MS/MS unit consisted of Waters ACQUITY UPLC® instrument coupled with an Acquity TQD® detector. Separations were performed at 40° C. on an Acquity UPLC® BEH C18 column (50*2.1 mm) at a flow rate of 0.3 mL/min. Gradient elution was performed over 2.3 minutes using a combination of acetonitrile and ammonium formate buffer (4 mM) as mobile phase. […] Calibration curves were obtained by analysis of standard solutions prepared in plasma in the range 100-10000 ng/mL and limit of quantification (LOQ) was 2.5 ng/mL.

[4] = cited from earlier work
[5] = rat, intravenous injection of 5 mg/kg; cited from earlier work
[6] = test system: metastatic hormone-refractory prostate cancer; experiment: FAVE study: PSA progression at 3 months under Efavirenz; assay type: in vivo, human; conditions: 600 mg/day; for PSA progression (share of subjects): 3 months
Procedure: For the exploratory analysis, following the latest recommendations of the Prostate Cancer Clinical Trials Working Group (Scher, 2008), PSA progression was defined as an increase of more than 25% over the baseline and an increase in the concentrations of PSA of at least 2 ng/ml. The clinical symptoms, the number of new bone metastasis and the global response to treatment (evaluated by the RECIST criteria) were also recorded. After three months, the global response and the overall survival were evaluated in a follow up study. Patients received 600 mg of Efavirenz per day and, during Efavirenz treatment, hormone therapy was maintained. […] However, it is difficult to predict precisely the efficacious dose in humans based on preclinical data. For this reason, the goal of the FAVE study was twofold: 1. […] Explore the relationship between the dose of the compound and clinical efficacy. In order to establish the minimal efficacious dose that could be effective for the treatment of prostate cancer the inventor used a correlational approach in which plasma concentrations of Efavirenz were related to treatment efficacy measured at the three month time point. Sixty-one patients were included in the study and fifty-three patients had no violation of the eligibility criteria and received Efavirenz at least once (general population). The assessment of Efavirenz plasma concentrations was an optional exploratory objective to which the patients had to expressly consent. Plasma Efavirenz concentrations at the three month time point were available for 41 patients that were used for the exploratory analysis.

[7] = test system: hormone refractory prostate cancer; experiment: FAVE follow up study: progression free survival (RECIST) and overall survival, ITT analysis; assay type: in vivo, human
Procedure: For the exploratory analysis, following the latest recommendations of the Prostate Cancer Clinical Trials Working Group (Scher, 2008), PSA progression was defined as an increase of more than 25% over the baseline and an increase in the concentrations of PSA of at least 2 ng/ml. The clinical symptoms, the number of new bone metastasis and the global response to treatment (evaluated by the RECIST criteria) were also recorded. After three months, the global response and the overall survival were evaluated in a follow up study. This approach was followed by an interventional approach aimed to establish a causal relationship between dose and efficacy of the treatment. In this case after three months of treatment at the 600 mg/day dose, the doses of Efavirenz were progressively raised to reach 1.2 g/day. Differences in disease progression as a function of plasma Efavirenz concentrations were confirmed in the follow up study. […] Log-rank Mantel-Cox's test, the <1500 and 1500-3000 groups were cumulated for statistical analysis). […] These thirteen patients were used to constitute the dose escalation group.

L1-RT = conditions: human tumor cell lines; cited from earlier work

SMILES	patients with Efavirenz plasma concentration of at least 1500 ng/ml ([1]; 3 months, 41 patients)	concentration at 3 months ([1]; human, plasma, cancer patients)	maximal plasma concentration [2]	mean plasma concentration of Efavirenz ([3]; 1800 mg/day)	mean plasma concentration of Efavirenz ([3]; 2200 mg/day)	patients with Efavirenz plasma concentration of at least 3000 ng/ml ([3]; daily dose between 1800 and 2200 mg)	subjects with plasma concentrations above 1500 ng/ml ([4]; 600 mg/day (Marzolini, 2001))	Efavirenz plasma concentration reached ([4]; 600 mg/day, patients with two loss or decrease of function CYP2B6 alleles (Rotger, 2007))	maximal plasma concentration [5]	PSA progression (share of subjects) ([6]; plasma Efavirenz 1500-3000 ng/ml group, N=22)	PSA progression (share of subjects) ([6]; plasma Efavirenz <1500 ng/ml group, N=12)	non-progressions for PSA levels at 3 months (share of patients) ([6]; all treated patients, N=53)	patients in whom the disease continued to progress (PSA) at 3 months ([6]; all treated patients, N=53)	median progression free survival ([7]; dose escalation group: up to 1200 mg/day, originally <3000 ng/ml, 13 patients)	median progression free survival ([7]; low (<1500 ng/ml) and intermediate (1500-3000 ng/ml) groups cumulated)	median progression free survival ([7]; plasma Efavirenz 1500-3000 ng/ml group)	median progression free survival ([7]; plasma Efavirenz <1500 ng/ml group)	median progression free survival ([7]; plasma Efavirenz <3000 ng/ml, no dose escalation (600 mg/day))	median progression free survival ([7]; plasma Efavirenz >3000 ng/ml group)	reverse transcriptase activity of L1-RT (L1-RT)
O=C1Nc2ccc(Cl)cc2[C@@](C#CC2CC2)(C(F)(F)F)O1 [Efavirenz]	70%	2140 ng/mL	1578 ng/mL	3712 ng/mL and > 3000 ng/mL and > 3500 ng/mL	7364 ng/mL and > 6500 ng/mL	84%	70-80%	at least 3000 ng/ml	5 µM	81.8%	83.3%	28%	72%	10 months	3 months	3 months	3 months	3 months	17 months	
Cc1ccnc2c1NC(=O)c1cccnc1N2C1CC1 [Nevirapine]																				able to inhibit
